# Test results taken from ChEMBL document CHEMBL5360641, “4'-Ethynyl-2'-deoxy-2'-β-fluoro-2-fluoroadenosine: A Highly Potent and Orally Available Clinical Candidate for the Treatment of HIV-1 Infection” (J Med Chem, 2023).
# Key:
# [1] = Half life in Sprague-Dawley rat at 2.5 mg/kg, IG measured upto 24 hrs by LC-MS/MS analysis; assay type: ADME, organism-based; conditions: in vivo, po
# [2] = Cmax in Sprague-Dawley rat at 5 mg/kg, IG measured upto 24 hrs by LC-MS/MS analysis; assay type: ADME, organism-based; set-up: time < 24 hrs, dose 5 mg/kg, route ig; conditions: in vivo, po
# [3] = Toxicity in Sprague-Dawley rat assessed as death at 10 to 30 mg/kg, po administered once daily for 4 weeks and measured after 24 hrs post last dose; assay type: organism-based; conditions: in vivo, 696 h, dose 10-30 mg/kg
# [4] = Acute toxicity in Sprague-Dawley rat assessed as effect on brain damage at 500 to 2000 mg/kg, IG measured on day 15; assay type: organism-based; conditions: in vivo, po, 360 h, dose 500-2000 mg/kg, time 15 day
# [5] = AUC (0 to t) in female Sprague-Dawley rat at 100 mg/kg, IG measured at 24 hrs LC-MS/MS analysis; assay type: ADME, organism-based; set-up: time 24 hrs, dose 100 mg/kg, route ig; conditions: in vivo, po
# [6] = Cmax in Sprague-Dawley rat at 2.5 mg/kg, IG measured upto 24 hrs by LC-MS/MS analysis; assay type: ADME, organism-based; set-up: time < 24 hrs, dose 2.5 mg/kg, route ig; conditions: in vivo, po
# [7] = AUC (0 to t) in male Sprague-Dawley rat at 100 mg/kg, IG measured at 0.5 hrs LC-MS/MS analysis; assay type: ADME, organism-based; set-up: dose 100 mg/kg, time 0.5 hrs, route ig; conditions: in vivo, po
# [8] = test system: Human immunodeficiency virus 1; assay: Antiviral activity against HIV1 VSV-G pseudotyped virus infected in human HEK293T cells assessed as inhibition of viral growth preincubated for 3 hrs followed by washout and further incubated with compound for 72 hrs by luciferase assay; assay type: functional, organism-based; conditions: Human immunodeficiency virus 1, HEK-293T
# [9] = Bioavailability in Sprague-Dawley rat at 5 mg/kg, IG measured upto 24 hrs by LC-MS/MS analysis; assay type: ADME, organism-based; conditions: in vivo, po
# [10] = AUC (0 to t) in female Sprague-Dawley rat at 30 mg/kg, IG measured at 0.5 hrs LC-MS/MS analysis; assay type: ADME, organism-based; set-up: time 0.5 hrs, dose 30 mg/kg, route ig; conditions: in vivo, po
# [11] = AUC (0 to t) in male Sprague-Dawley rat at 10 mg/kg, IG measured at 24 hrs LC-MS/MS analysis; assay type: ADME, organism-based; set-up: dose 10 mg/kg, time 24 hrs, route ig; conditions: in vivo, po
# [12] = Toxicity in Sprague-Dawley rat assessed as effect on food consumption at 10 to 30 mg/kg, po administered once daily for 4 weeks and measured after 24 hrs post last dose; assay type: organism-based; conditions: in vivo, 696 h, dose 10-30 mg/kg
# [13] = test system: Human immunodeficiency virus 1; assay: Antiviral activity against HIV1 IIIB infected in human C8166 cells assessed as inhibition of viral replication by measuring reduction in p24 antigen level incubated for 3 to 7 days by ELISA analysis; assay type: functional, organism-based; conditions: Human immunodeficiency virus 1, IIIB
# [14] = AUC (0 to t) in male Sprague-Dawley rat at 10 mg/kg, IG measured at 0.5 hrs LC-MS/MS analysis; assay type: ADME, organism-based; set-up: dose 10 mg/kg, time 0.5 hrs, route ig; conditions: in vivo, po
# [15] = AUC (0 to t) in female Sprague-Dawley rat at 30 mg/kg, IG measured at 24 hrs LC-MS/MS analysis; assay type: ADME, organism-based; set-up: dose 30 mg/kg, time 24 hrs, route ig; conditions: in vivo, po
# [16] = Apparent oral clearance in Sprague-Dawley rat at 5 mg/kg, IG measured upto 24 hrs by LC-MS/MS analysis; assay type: ADME, organism-based; conditions: in vivo
# [17] = test system: Human immunodeficiency virus 1; assay: Antiviral activity against HIV1 WAN infected in human PBMC assessed as inhibition of viral replication by measuring reduction in p24 antigen level incubated for 3 to 7 days by ELISA analysis; assay type: functional, organism-based; conditions: Human immunodeficiency virus 1, WAN
# [18] = test system: Human immunodeficiency virus 1; assay: Antiviral activity against HIV1 TC-1 infected in human PBMC assessed as inhibition of viral replication by measuring reduction in p24 antigen level incubated for 3 to 7 days by ELISA analysis; assay type: functional, organism-based; conditions: Human immunodeficiency virus 1, TC-1, PBMC
# [19] = AUC (0 to t) in Sprague-Dawley rat at 5 mg/kg, IG measured upto 24 hrs by LC-MS/MS analysis; assay type: ADME, organism-based; set-up: time < 24 hrs, dose 5 mg/kg, route ig; conditions: in vivo, po
# [20] = AUC (0 to t) in Sprague-Dawley rat at 5 mg/kg, iv measured upto 24 hrs by LC-MS/MS analysis; assay type: ADME, organism-based; set-up: dose 5 mg/kg, time < 24 hrs, route iv; conditions: in vivo
# [21] = AUC (0 to t) in Sprague-Dawley rat at 2.5 mg/kg, IG measured upto 24 hrs by LC-MS/MS analysis; assay type: ADME, organism-based; set-up: time < 24 hrs, dose 2.5 mg/kg, route ig; conditions: in vivo, po
# [22] = test system: Human immunodeficiency virus 1; assay: Antiviral activity against HIV1 IIIB infected in human C8166 cells assessed as inhibition of syncytia formation incubated for 3 to 7 days by syncytia assays; assay type: functional, organism-based; conditions: Human immunodeficiency virus 1, IIIB
# [23] = Acute toxicity in Sprague-Dawley rat assessed as effect on liver damage at 500 to 2000 mg/kg, IG measured on day 15; assay type: organism-based; conditions: in vivo, po, 360 h, dose 500-2000 mg/kg, time 15 day
# [24] = test system: Human immunodeficiency virus 1; assay: Antiviral activity against HIV1 4755-5 infected in human C8166 cells assessed as inhibition of viral replication by measuring reduction in p24 antigen level incubated for 3 to 7 days by ELISA analysis; assay type: functional, organism-based; conditions: Human immunodeficiency virus 1, 4755-5, C8166
# [25] = AUC (0 to t) in male Sprague-Dawley rat at 30 mg/kg, IG measured at 0.5 hrs LC-MS/MS analysis; assay type: ADME, organism-based; set-up: dose 30 mg/kg, time 0.5 hrs, route ig; conditions: in vivo, po
# [26] = Tmax in Sprague-Dawley rat at 10 mg/kg, IG measured upto 24 hrs by LC-MS/MS analysis; assay type: ADME, organism-based; conditions: in vivo, po
# [27] = Acute toxicity in Sprague-Dawley rat assessed as death at 500 to 2000 mg/kg, IG measured for 14 days; assay type: organism-based; conditions: in vivo, po, 336 h, dose 500-2000 mg/kg, time 14 day
# [28] = test system: Human immunodeficiency virus 1; assay: Antiviral activity against HIV1 NL4-3 infected in human C8166 cells assessed as inhibition of viral replication by measuring reduction in p24 antigen level incubated for 3 to 7 days by ELISA analysis; assay type: functional, organism-based; conditions: Human immunodeficiency virus 1, NL4-3, C8166
# [29] = Cytotoxicity against HEK293T cells assessed as reduction in cell viability by MTT assay; assay type: toxicity, cell-based, HEK-293T; conditions: human
# [30] = Cmax in Sprague-Dawley rat at 10 mg/kg, IG measured upto 24 hrs by LC-MS/MS analysis; assay type: ADME, organism-based; set-up: time < 24 hrs, dose 10 mg/kg, route ig; conditions: in vivo, po
# [31] = Acute toxicity in Sprague-Dawley rat assessed as effect on food intake at 500 to 2000 mg/kg, IG measured for 14 days; assay type: organism-based; conditions: in vivo, po, 336 h, dose 500-2000 mg/kg, time 14 day
# [32] = Half life in Sprague-Dawley rat at 5 mg/kg, IG measured upto 24 hrs by LC-MS/MS analysis; assay type: ADME, organism-based; conditions: in vivo, po
# [33] = Bioavailability in Sprague-Dawley rat at 2.5 mg/kg, IG measured upto 24 hrs by LC-MS/MS analysis; assay type: ADME, organism-based; conditions: in vivo, po
# [34] = test system: Human immunodeficiency virus 1; assay: Antiviral activity against HIV1 KIZ001 infected in human PBMC assessed as inhibition of viral replication by measuring reduction in p24 antigen level incubated for 3 to 7 days by ELISA analysis; assay type: functional, organism-based; conditions: Human immunodeficiency virus 1, KIZ001, PBMC
# [35] = Tmax in Sprague-Dawley rat at 2.5 mg/kg, IG measured upto 24 hrs by LC-MS/MS analysis; assay type: ADME, organism-based; conditions: in vivo, po
# [36] = test system: Human immunodeficiency virus 1; assay: Antiviral activity against HIV-1 harboring protease V82F/[…] double mutant infected in human C8166 cells assessed as inhibition of viral replication by measuring reduction in p24 antigen level incubated for 3 to 7 days by ELISA analysis; assay type: functional, organism-based; conditions: Human immunodeficiency virus 1, C8166
# HEK-293T = assay: Cytotoxicity against HEK293T cells assessed as reduction in cell viability upto 100 uM MTT assay; assay type: toxicity, cell-based; conditions: human
# [37] = AUC (0 to t) in female Sprague-Dawley rat at 100 mg/kg, IG measured at 0.5 hrs LC-MS/MS analysis; assay type: ADME, organism-based; set-up: time 0.5 hrs, dose 100 mg/kg, route ig; conditions: in vivo, po
compound,measurement,setting,value
C#C[C@]1(CO)O[C@@H](n2cnc3c(N)nc(F)nc32)[C@@H](F)[C@@H]1O,half-life,[1],2 h
same,Cmax,[2],1230 ng/mL
same,Activity,[3],Non-Toxic
same,Activity,[4],Non-Toxic
same,AUC(0-t) at 24 h,[5],82500 ng·h/mL
same,Cmax,[6],630 ng/mL
same,AUC(0-t) at 0.5 h,[7],89300 ng·h/mL
same,EC50,[8],0.9 nM
same,bioavailability,[9],67.5%
same,AUC(0-t) at 0.5 h,[10],22800 ng·h/mL
same,AUC(0-t) at 24 h,[11],8150 ng·h/mL
same,Activity,[12],Non-Toxic
same,EC50,[13],6.5 nM
same,AUC(0-t) at 0.5 h,[14],6860 ng·h/mL
same,AUC(0-t) at 24 h,[15],26500 ng·h/mL
same,CL/F,[16],25 mL/min/kg
same,EC50,[17],14.4 nM
same,EC50,[18],6.3 nM
same,AUC(0-t) at 24 h,[19],3630 ng·h/mL
same,AUC(0-t) at 24 h,[20],5290 ng·h/mL
same,AUC(0-t) at 24 h,[21],1720 ng·h/mL
same,EC50,[22],3.51 nM
same,Activity,[23],Non-Toxic
same,EC50,[24],32.4 nM
same,AUC(0-t) at 0.5 h,[25],28200 ng·h/mL
same,Tmax,[26],1 h
same,Activity,[27],Non-Toxic
same,EC50,[28],1.18 nM
same,CC50,[29],> 100000 nM
same,Cmax,[30],2110 ng/mL
same,Activity,[31],Non-Toxic
same,half-life,[32],3.2 h
same,bioavailability,[33],64.2%
same,EC50,[34],1.87 nM
same,Tmax,[35],0.63 h
same,EC50,[36],6.75 nM
same,Activity,HEK-293T,Non-Toxic
same,AUC(0-t) at 0.5 h,[37],87400 ng·h/mL
